{"source": "patent US20260248787A9", "about": "“MEDICAMENT FOR TREATING CANCER COMPRISING OPTICALLY ACTIVE AZABICYCLO RING DERIVATIVE” (Sumitomo Pharma Co., Ltd., priority 2023, published 2026)", "test": "Phase 1/2 clinical study, plasma pharmacokinetic evaluation", "assay_type": "in vivo, human", "conditions": "for time of maximum concentration: after dosing; for AUC(0-t) / Cmax / Tmax / half-life: human, plasma, oral; for half-life: read-out: t1/2 (converted)", "experimental": "In the present test of the present compound, PK samples have been collected in up to 24 patients dosed in dose groups of 40, 80, 100, and 120 mg BID Arm A, and in dose groups of 40 and 60 mg BID Arm B (Table 6). Large preliminary PK inter-patient variability was observed.\n(1) In the present study, PK samples have been collected in up to 42 patients dosed in dose groups of 40, 80, 100, 120, 140 and 200 mg BID Arm A, and in dose groups of 40, 60, 100, and 200 mg BID Arm B (Table 15).\n(2) In the present study, PK samples have been collected in patients dosed in dose groups of 40, 80, 100, 120, 140, 200, and 300 mg BID Arm A, and in dose groups of 40, 60, 100, 200, and 300 mg BID Arm B (Table 16).", "key": {"[1]": {"conditions": "40 mg, 40 mg BID Arm A, C1D1, N=2, mean"}, "[2]": {"conditions": "40 mg, 40 mg BID Arm A, C2D1, N=1"}, "[3]": {"conditions": "40 mg, 40 mg BID Arm B, C1D1, N=4, mean"}, "[4]": {"conditions": "40 mg, 40 mg BID Arm B, C2D1, N=2, mean"}, "[5]": {"conditions": "40 mg, Cycle 1 Day 1, 40 mg BID Arm A (without azole), N=2, mean"}, "[6]": {"conditions": "40 mg, Cycle 1 Day 1, 40 mg BID Arm B (with azole), N=4, mean"}, "[7]": {"conditions": "40 mg, Cycle 2 Day 1, 40 mg BID Arm A (without azole), N=1"}, "[8]": {"conditions": "40 mg, Cycle 2 Day 1, 40 mg BID Arm B (with azole), N=2, mean"}, "[9]": {"conditions": "40 mg, Table 15 cut-off, 40 mg BID Arm A, Cycle 1 Day 1, N=2, mean"}, "[10]": {"conditions": "40 mg, Table 15 cut-off, 40 mg BID Arm A, Cycle 2 Day 1, N=1"}, "[11]": {"conditions": "40 mg, Table 15 cut-off, 40 mg BID Arm B, Cycle 1 Day 1, N=4, mean"}, "[12]": {"conditions": "40 mg, Table 15 cut-off, 40 mg BID Arm B, Cycle 2 Day 1, N=2, mean"}, "[13]": {"conditions": "60 mg, 60 mg BID Arm B, C1D1, N=6, mean"}, "[14]": {"conditions": "60 mg, 60 mg BID Arm B, C2D1, N=4, mean"}, "[15]": {"conditions": "60 mg, Cycle 1 Day 1, 60 mg BID Arm B (with azole), N=6, mean"}, "[16]": {"conditions": "60 mg, Cycle 2 Day 1, 60 mg BID Arm B (with azole), N=4, mean"}, "[17]": {"conditions": "60 mg, Table 15 cut-off, 60 mg BID Arm B, Cycle 1 Day 1, N=6, mean"}, "[18]": {"conditions": "60 mg, Table 15 cut-off, 60 mg BID Arm B, Cycle 2 Day 1, N=4, mean"}, "[19]": {"conditions": "80 mg, 80 mg BID Arm A, C1D1, N=4, mean"}, "[20]": {"conditions": "80 mg, 80 mg BID Arm A, C2D1, N=2, mean"}, "[21]": {"conditions": "80 mg, Cycle 1 Day 1, 80 mg BID Arm A (without azole), N=4, mean"}, "[22]": {"conditions": "80 mg, Cycle 2 Day 1, 80 mg BID Arm A (without azole), N=2, mean"}, "[23]": {"conditions": "80 mg, Table 15 cut-off, 80 mg BID Arm A, Cycle 1 Day 1, N=4, mean"}, "[24]": {"conditions": "80 mg, Table 15 cut-off, 80 mg BID Arm A, Cycle 2 Day 1, N=2, mean"}, "[25]": {"conditions": "100 mg, 100 mg BID Arm A, C1D1, N=2, mean"}}, "note": "Like-named read-outs stand apart in the source and are kept apart here.", "data": [{"smiles": "C=C1C[C@@H]2CC[C@H]1[C@@H](C(=O)N1CCC3(CC1)CN(c1ncncc1Oc1ccc(F)cc1C(=O)N(C(C)C)C(C)C)C3)N2", "note": "[the present compound, 5-fluoro-2-[(4-{7-[(1S,3S,4R)-5-methylidene-2-azabicyclo[2.2.2]octane-3-carbonyl]-2,7-diazaspiro[3.5]nonan-2-yl}pyrimidin-5-yl)oxy]-N,N-di(propan-2-yl)benzamide]", "values": [{"measurement": "drug accumulation with repeat dosing", "setting": "40-200 mg BID cut-off", "result": "minimal drug accumulation"}, {"measurement": "effect of azoles on the exposure", "setting": "40-200 mg BID cut-off", "result": "do not have a large effect"}, {"measurement": "exposure versus dose", "setting": "40-200 mg BID cut-off", "result": "Dose-dependent increases in exposures"}, {"measurement": "drug accumulation with repeat dosing", "setting": "40-300 mg BID cut-off", "result": "minimal drug accumulation"}, {"measurement": "effect of azoles on the exposure", "setting": "40-300 mg BID cut-off", "result": "do not have a large effect"}, {"measurement": "exposure versus dose", "setting": "40-300 mg BID cut-off", "result": "Dose-dependent increases in exposures"}, {"measurement": "exposure versus dose", "setting": "Arm A, 40, 80, 100, 120 mg BID", "result": "a trend of dose-related increased in exposures"}, {"measurement": "impact of azoles on the exposure", "setting": "Arm B compared with Arm A, first cut-off", "result": "do not have a large or dramatic impact"}, {"measurement": "drug accumulation with repeat dosing", "setting": "Cycle 2 Day 1 vs Cycle 1 Day 1, first cut-off", "result": "minimal to no drug accumulation"}, {"measurement": "accumulation with repeat dosing", "setting": "FIGS. 4A to 4D cut-off", "result": "minimal accumulation"}, {"measurement": "large drug-drug interaction (>~2-fold) with azoles", "setting": "FIGS. 4A to 4D cut-off", "result": "has not identified"}, {"measurement": "time of maximum concentration", "setting": "40-200 mg BID cut-off", "result": "≤ 2", "unit": "h"}, {"measurement": "time of maximum concentration", "setting": "40-300 mg BID cut-off", "result": "≤ 2", "unit": "h"}, {"measurement": "exposure versus dose", "setting": "doses ≥140 mg BID, FIGS. 4A to 4D cut-off", "result": "Dose-related increases in exposures"}, {"measurement": "AUC(0-t)", "setting": "[1]", "result": 3920, "unit": "ng·h/mL"}, {"measurement": "Cmax", "setting": "[1]", "result": 1160, "unit": "ng/mL"}, {"measurement": "Tmax", "setting": "[1]", "result": 1.25, "unit": "h"}, {"measurement": "half-life", "setting": "[1]", "result": 3.35, "unit": "h"}, {"measurement": "AUC(0-t)", "setting": "[2]", "result": 4710, "unit": "ng·h/mL"}, {"measurement": "Cmax", "setting": "[2]", "result": 772, "unit": "ng/mL"}, {"measurement": "Tmax", "setting": "[2]", "result": 2, "unit": "h"}, {"measurement": "half-life", "setting": "[2]", "result": 4.57, "unit": "h"}, {"measurement": "AUC(0-t)", "setting": "[3]", "result": 3270, "unit": "ng·h/mL"}, {"measurement": "Cmax", "setting": "[3]", "result": 976, "unit": "ng/mL"}, {"measurement": "Tmax", "setting": "[3]", "result": 0.625, "unit": "h"}, {"measurement": "half-life", "setting": "[3]", "result": 4.41, "unit": "h"}, {"measurement": "AUC(0-t)", "setting": "[4]", "result": 5330, "unit": "ng·h/mL"}, {"measurement": "Cmax", "setting": "[4]", "result": 987, "unit": "ng/mL"}, {"measurement": "Tmax", "setting": "[4]", "result": 1.25, "unit": "h"}, {"measurement": "half-life", "setting": "[4]", "result": 7.29, "unit": "h"}, {"measurement": "AUC(0-t)", "setting": "[5]", "result": 3960, "unit": "ng·h/mL"}, {"measurement": "Cmax", "setting": "[5]", "result": 1160, "unit": "ng/mL"}, {"measurement": "AUC(0-t)", "setting": "[6]", "result": 3270, "unit": "ng·h/mL"}, {"measurement": "Cmax", "setting": "[6]", "result": 976, "unit": "ng/mL"}, {"measurement": "AUC(0-t)", "setting": "[7]", "result": 4730, "unit": "ng·h/mL"}, {"measurement": "Cmax", "setting": "[7]", "result": 772, "unit": "ng/mL"}, {"measurement": "AUC(0-t)", "setting": "[8]", "result": 5330, "unit": "ng·h/mL"}, {"measurement": "Cmax", "setting": "[8]", "result": 987, "unit": "ng/mL"}, {"measurement": "AUC(0-t)", "setting": "[9]", "result": 3960, "unit": "ng·h/mL"}, {"measurement": "Cmax", "setting": "[9]", "result": 1160, "unit": "ng/mL"}, {"measurement": "AUC(0-t)", "setting": "[10]", "result": 4730, "unit": "ng·h/mL"}, {"measurement": "Cmax", "setting": "[10]", "result": 772, "unit": "ng/mL"}, {"measurement": "AUC(0-t)", "setting": "[11]", "result": 3270, "unit": "ng·h/mL"}, {"measurement": "Cmax", "setting": "[11]", "result": 976, "unit": "ng/mL"}, {"measurement": "AUC(0-t)", "setting": "[12]", "result": 5330, "unit": "ng·h/mL"}, {"measurement": "Cmax", "setting": "[12]", "result": 987, "unit": "ng/mL"}, {"measurement": "AUC(0-t)", "setting": "[13]", "result": 4140, "unit": "ng·h/mL"}, {"measurement": "Cmax", "setting": "[13]", "result": 1170, "unit": "ng/mL"}, {"measurement": "Tmax", "setting": "[13]", "result": 1.08, "unit": "h"}, {"measurement": "half-life", "setting": "[13]", "result": 2.61, "unit": "h"}, {"measurement": "AUC(0-t)", "setting": "[14]", "result": 2610, "unit": "ng·h/mL"}, {"measurement": "Cmax", "setting": "[14]", "result": 703, "unit": "ng/mL"}, {"measurement": "Tmax", "setting": "[14]", "result": 0.75, "unit": "h"}, {"measurement": "half-life", "setting": "[14]", "result": 3.19, "unit": "h"}, {"measurement": "AUC(0-t)", "setting": "[15]", "result": 4240, "unit": "ng·h/mL"}, {"measurement": "Cmax", "setting": "[15]", "result": 1170, "unit": "ng/mL"}, {"measurement": "AUC(0-t)", "setting": "[16]", "result": 2690, "unit": "ng·h/mL"}, {"measurement": "Cmax", "setting": "[16]", "result": 751, "unit": "ng/mL"}, {"measurement": "AUC(0-t)", "setting": "[17]", "result": 4240, "unit": "ng·h/mL"}, {"measurement": "Cmax", "setting": "[17]", "result": 1170, "unit": "ng/mL"}, {"measurement": "AUC(0-t)", "setting": "[18]", "result": 2690, "unit": "ng·h/mL"}, {"measurement": "Cmax", "setting": "[18]", "result": 751, "unit": "ng/mL"}, {"measurement": "AUC(0-t)", "setting": "[19]", "result": 5150, "unit": "ng·h/mL"}, {"measurement": "Cmax", "setting": "[19]", "result": 1620, "unit": "ng/mL"}, {"measurement": "Tmax", "setting": "[19]", "result": 1.25, "unit": "h"}, {"measurement": "half-life", "setting": "[19]", "result": 2.82, "unit": "h"}, {"measurement": "AUC(0-t)", "setting": "[20]", "result": 2900, "unit": "ng·h/mL"}, {"measurement": "Cmax", "setting": "[20]", "result": 1400, "unit": "ng/mL"}, {"measurement": "Tmax", "setting": "[20]", "result": 0.75, "unit": "h"}, {"measurement": "half-life", "setting": "[20]", "result": 3.4, "unit": "h"}, {"measurement": "AUC(0-t)", "setting": "[21]", "result": 5110, "unit": "ng·h/mL"}, {"measurement": "Cmax", "setting": "[21]", "result": 1620, "unit": "ng/mL"}, {"measurement": "AUC(0-t)", "setting": "[22]", "result": 2900, "unit": "ng·h/mL"}, {"measurement": "Cmax", "setting": "[22]", "result": 1400, "unit": "ng/mL"}, {"measurement": "AUC(0-t)", "setting": "[23]", "result": 5110, "unit": "ng·h/mL"}, {"measurement": "Cmax", "setting": "[23]", "result": 1620, "unit": "ng/mL"}, {"measurement": "AUC(0-t)", "setting": "[24]", "result": 2900, "unit": "ng·h/mL"}, {"measurement": "Cmax", "setting": "[24]", "result": 1400, "unit": "ng/mL"}, {"measurement": "AUC(0-t)", "setting": "[25]", "result": 4940, "unit": "ng·h/mL"}, {"measurement": "Cmax", "setting": "[25]", "result": 1380, "unit": "ng/mL"}]}]}
